Assay results published in PMC5432616, “Oligomeric State and Thermal Stability of Apo- and Holo- Human Ornithine δ-Aminotransferase” (The Protein Journal, 2017).
Positions count from the first letter of the chain named.

Legend:
[1] = target: T1, hOAT (human ornithine δ-aminotransferase) (Homo sapiens, UniProt P04181); experiment: thermal denaturation followed by CD at […] nm, holo versus apo; assay type: binding; conditions: 50 mM Hepes, pH 7.4, 0.5 M NaCl; tetrameric form; covalent (internal aldimine with Lys292)
T1 construct: gene OAT; untagged, pET43a, E. coli BL21(DE3)pLysS; DEAE and Superdex 200; tetramer in equilibrium with dimer, dimer is the functional unit
T1 sequence (P04181 26-439): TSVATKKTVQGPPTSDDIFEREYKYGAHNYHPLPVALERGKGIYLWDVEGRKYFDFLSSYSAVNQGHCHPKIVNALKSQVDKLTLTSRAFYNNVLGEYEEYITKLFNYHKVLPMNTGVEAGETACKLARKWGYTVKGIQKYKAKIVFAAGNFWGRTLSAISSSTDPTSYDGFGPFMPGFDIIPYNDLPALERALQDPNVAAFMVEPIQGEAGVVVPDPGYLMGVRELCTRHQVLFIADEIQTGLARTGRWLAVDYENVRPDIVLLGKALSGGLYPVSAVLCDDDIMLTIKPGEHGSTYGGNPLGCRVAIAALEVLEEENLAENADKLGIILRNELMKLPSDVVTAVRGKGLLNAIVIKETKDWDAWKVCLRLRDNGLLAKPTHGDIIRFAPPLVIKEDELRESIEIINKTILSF

[2] = target: T2, hOAT (human ornithine δ-aminotransferase) (Homo sapiens, UniProt P04181, R217A); experiment: quenching of intrinsic fluorescence of apoenzyme at […] nm; assay type: binding; conditions: read-out: KD(PLP)
T2 construct: gene OAT; untagged, pET43a, E. coli BL21(DE3)pLysS; DEAE and Superdex 200; tetramer in equilibrium with dimer, dimer is the functional unit
T2 sequence (P04181 26-439 R217A): T1 sequence (P04181 26-439) with R192A

## Cc1ncc(COP(=O)(O)O)c(C=O)c1O [PLP]
[1]
  dTm (apparent Tm, holo minus apo): ~ 21 °C
[2]
  Kd: 280 ± 300 nM
